Values of other authors in patent US8372995B2, “Crystalline solid forms of tigecycline and methods of preparing same” (priority 2005, dated 2013).

Key:
[1] = test system: methicillin-resistant Staphylococcus aureus
[2] = test system: penicillin-resistant Streptococcus pneumoniae
[3] = test system: vancomycin-resistant enterococci
[4] = test system: organisms carrying either of the two major forms of tetracycline resistance: efflux and ribosomal protection
[5] = oral

CN(C)c1cc(NC(=O)CNC(C)(C)C)c(O)c2c1C[C@H]1C[C@H]3[C@H](N(C)C)C(O)=C(C(N)=O)C(=O)[C@@]3(O)C(O)=C1C2=O [Tigecycline]
activity against methicillin-resistant Staphylococcus aureus [1]: active | activity against penicillin-resistant Streptococcus pneumoniae [2]: active | activity against vancomycin-resistant enterococci [3]: active | activity against organisms carrying tetracycline resistance (efflux, ribosomal protection) [4]: active | bioavailability when given orally [5]: generally poor
